Source: patent US20250223301A1, “KINASE INHIBITORS, PREPARATION METHODS AND USES THEREOF” (InventisBio Co., Ltd., priority 2022, published 2025)

Experiments:
[1] = molecular target: DGKz (Homo sapiens (Human), UniProt Q13574); experiment: DGK ADP-Glo kinase assay (DGKz); format: biochemical; conditions: 5 nM DGKz, 15 uM ATP
Description: Luminescence was recorded using an Tecan SPARK microplate reader.

[2] = molecular target: DGKa (Homo sapiens (Human), UniProt P23743); experiment: biochemical;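 further: biochemical DGK kinase assay, ADP-Glo luminescence from ADP made by phosphorylating 1,2-dioleoyl-sn-glycerol, 20 min compound preincubation then 40 min reaction at 25 °C, 1% DMSO control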
DGKa, sequence (P23743 whole entry): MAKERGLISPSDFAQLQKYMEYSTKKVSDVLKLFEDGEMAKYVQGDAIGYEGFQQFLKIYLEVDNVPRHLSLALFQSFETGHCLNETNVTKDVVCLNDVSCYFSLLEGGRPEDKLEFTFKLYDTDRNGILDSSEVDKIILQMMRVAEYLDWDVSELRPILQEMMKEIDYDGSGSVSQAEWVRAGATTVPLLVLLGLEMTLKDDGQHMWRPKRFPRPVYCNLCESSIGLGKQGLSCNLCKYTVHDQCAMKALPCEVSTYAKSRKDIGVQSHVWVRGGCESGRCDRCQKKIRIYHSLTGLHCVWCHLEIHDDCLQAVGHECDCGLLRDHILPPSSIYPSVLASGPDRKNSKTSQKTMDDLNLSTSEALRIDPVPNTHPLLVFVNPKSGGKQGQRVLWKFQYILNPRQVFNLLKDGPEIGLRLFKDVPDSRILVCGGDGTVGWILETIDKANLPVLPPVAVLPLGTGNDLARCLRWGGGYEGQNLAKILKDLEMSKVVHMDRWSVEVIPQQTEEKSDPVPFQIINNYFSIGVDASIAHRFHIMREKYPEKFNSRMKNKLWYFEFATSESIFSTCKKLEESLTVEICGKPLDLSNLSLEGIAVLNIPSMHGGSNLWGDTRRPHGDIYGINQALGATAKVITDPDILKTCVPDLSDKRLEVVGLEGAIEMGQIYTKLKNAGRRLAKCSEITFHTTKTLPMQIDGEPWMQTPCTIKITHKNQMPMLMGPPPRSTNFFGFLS
Description: The DGKa and DGKz kinase assays were performed using Promega ADP-Glo kit (Promega, Cat #V9102). One microliter test compound was added to a 384-well plate. Reactions were performed in a 5 uL volume by adding 2 uL mixture of DGK enzyme and ATP in assay buffer (50 mM MOPS pH 7.5, 100 mM NaCl, 10 mM MgCl2, 1 mM CaCl2, 0.0025% BSA, and 1 mM DTT). […] The enzyme solution was incubated with test compound at 25 ? for 20 min. […] The reaction was initiated by the addition of 2 uL of substrate solution (7 uM 1.2-dioleoyl-sn-glycerol, 5 mM octyl-b-D-glucopyranoside) in the 5 uL assay volume. The resulting mixture was incubated at 25° C. for 40 minutes. Next, 5 uL of ADP-Glo-reagent was added to the plate and incubated for 40 minutes. Then 10 uL of kinase detection reagent was added and incubated for 30 minutes. Luminescence was recorded using an Tecan SPARK microplate reader. 1% DMSO vehicle was used as control and no enzyme well was used as blank well.

DGKz, sequence (Q13574 whole entry): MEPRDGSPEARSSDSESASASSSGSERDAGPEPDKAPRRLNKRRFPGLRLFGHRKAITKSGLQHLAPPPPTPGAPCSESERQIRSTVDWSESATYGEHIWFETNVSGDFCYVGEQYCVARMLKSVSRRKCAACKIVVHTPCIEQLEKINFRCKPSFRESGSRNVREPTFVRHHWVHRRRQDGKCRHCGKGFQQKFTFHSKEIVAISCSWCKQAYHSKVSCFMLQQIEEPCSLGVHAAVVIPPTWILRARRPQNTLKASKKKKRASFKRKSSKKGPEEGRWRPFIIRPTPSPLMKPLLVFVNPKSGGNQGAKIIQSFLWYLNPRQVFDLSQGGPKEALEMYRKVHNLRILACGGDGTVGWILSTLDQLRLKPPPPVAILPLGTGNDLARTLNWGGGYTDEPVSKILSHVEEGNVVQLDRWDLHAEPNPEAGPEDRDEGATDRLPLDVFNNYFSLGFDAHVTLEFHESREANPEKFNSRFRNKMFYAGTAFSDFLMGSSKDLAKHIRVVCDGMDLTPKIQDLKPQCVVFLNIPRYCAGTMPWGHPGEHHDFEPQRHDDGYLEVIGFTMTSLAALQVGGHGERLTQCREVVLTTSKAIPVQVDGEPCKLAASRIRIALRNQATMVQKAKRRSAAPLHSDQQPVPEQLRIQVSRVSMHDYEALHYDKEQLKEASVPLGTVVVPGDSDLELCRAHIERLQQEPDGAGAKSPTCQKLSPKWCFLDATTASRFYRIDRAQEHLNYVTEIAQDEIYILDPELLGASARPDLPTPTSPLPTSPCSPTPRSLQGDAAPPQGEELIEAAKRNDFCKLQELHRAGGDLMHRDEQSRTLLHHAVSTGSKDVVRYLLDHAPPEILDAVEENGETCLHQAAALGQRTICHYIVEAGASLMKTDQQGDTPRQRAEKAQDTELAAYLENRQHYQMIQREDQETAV

SMILES	IC50 [1] [nM]	IC50 [2] [nM]
CC[C@H]1CN([C@H](C)c2ccc(S(F)(F)(F)(F)F)cc2)[C@H](CC)CN1c1nc2nncn2c2ccc(C#N)nc12 (stereo in doubt) [Compound 89]	116	10
CC[C@@H]1CN(c2nc3nncn3c3ccc(C#N)nc23)[C@@H](C)CN1[C@H](CC)c1ccc(S(F)(F)(F)(F)F)cc1 (stereo in doubt) [Compound 90]	404	10
CC[C@H]1C[C@@H](c2nc3cc(C)ccc3o2)CCN1c1nc(=O)n(C)c2cc(O[C@H]3CCOC3)c(Cl)cc12 (stereo in doubt) [Compound 93]	130	12
CC[C@@H]1C[C@@H](c2nc3cc(C)ccc3o2)CCN1c1nc(=O)n(C)c2cc(OC3CCOC3)c(Cl)cc12 (stereo in doubt) [Compound 96]	2820	4
CC[C@H]1CN([C@H](CC)c2ccc(OC(F)(F)F)cc2)[C@H](CC)CN1c1nc2nncn2c2ccc(C#N)nc12 (stereo in doubt) [Compound 101]	235	11
CC[C@H]1CN([C@@H](CC)c2cccc(C(F)(F)F)c2)[C@H](CC)CN1c1nc2nncn2c2ccc(C#N)nc12 (stereo in doubt) [Compound 105]	29	4
CC[C@H]1CN([C@H](CC)c2cccc(C(F)(F)F)c2)[C@H](CC)CN1c1nc2nncn2c2ccc(C#N)nc12 (stereo in doubt) [Compound 106]	555	24
CC[C@H]1CN([C@@H](CC)c2ccc(C(F)(F)F)nc2)[C@H](CC)CN1c1nc2nncn2c2ccc(C#N)nc12 (stereo in doubt) [Compound 111]	18	7
CC[C@H]1CN([C@H](CC)c2ccc(C(F)(F)F)nc2)[C@H](CC)CN1c1nc2nncn2c2ccc(C#N)nc12 (stereo in doubt) [Compound 112]	183	11
CC[C@H]1CN([C@H](c2ccc(S(F)(F)(F)(F)F)cc2)C2CC2)[C@H](CC)CN1c1nc(=O)n(C)c2ccc(C#N)nc12 (stereo in doubt) [Compound 117]	200	18
CC[C@H]1CN([C@@H](c2ccc(S(F)(F)(F)(F)F)cc2)C2CC2)[C@H](CC)CN1c1nc(=O)n(C)c2ccc(C#N)nc12 (stereo in doubt) [Compound 118]	610	22
CC[C@@H]1C[C@H](Oc2ccc(OC(F)(F)F)cc2)CCN1c1nc(=O)n(C)c2ccc(C#N)nc12 [Compound 16]	58	926
CC[C@H]1CN([C@H](CC)c2ccc(S(F)(F)(F)(F)F)cc2)[C@H](CC)CN1c1nc(=O)n(C)c2ccc(C#N)nc12 [Compound 29]	55	14
Cc1ccc2oc(C3CCN(c4nc(=O)n(C)c5cc(O[C@@H]6CCOC6)c(Cl)cc45)CC3)nc2c1 [Compound 32]	> 10000	9
Cc1ccc2oc(C3CCN(c4nc(=O)n(C)c5cc(O[C@H]6CCOC6)c(Cl)cc45)CC3)nc2c1 [Compound 33]	60	2
Cn1c(=O)nc(N2CCCc3c(C#CC4CC4)cccc32)c2nc(C#N)ccc21 [Compound 39]	2050	1
CC[C@H]1CN([C@H]2CCCCc3cc(C(F)(F)F)ccc32)[C@H](CC)CN1c1nc(=O)n(C)c2ccc(C#N)nc12 [Compound 44]	315	40
CC[C@H]1CN([C@H](c2ccc(SC(F)(F)F)cc2)c2nc(C3CC3)cs2)[C@H](CC)CN1c1nc(=O)n(C)c2ccc(C#N)nc12 [Compound 57]	607	24
CC[C@H]1CN([C@@H](c2ccc(SC(F)(F)F)cc2)c2nc(C3CC3)cs2)[C@H](CC)CN1c1nc(=O)n(C)c2ccc(C#N)nc12 [Compound 58]	367	9
N#Cc1cc2c3c(n1)c(N1CCC4(CC1)CC(c1ccc(OC(F)(F)F)cc1)=NO4)nc(=O)n3CCO2 [Compound 59]	162	28
